For three compounds, EC50 results are on record in BindingDB's records for patent US20250282741 (Innovo Therapeutics, 2025).

The assay deals with T1, Serpin H1 (Human, UniProt P50454).
T1 sequence (P50454 whole entry): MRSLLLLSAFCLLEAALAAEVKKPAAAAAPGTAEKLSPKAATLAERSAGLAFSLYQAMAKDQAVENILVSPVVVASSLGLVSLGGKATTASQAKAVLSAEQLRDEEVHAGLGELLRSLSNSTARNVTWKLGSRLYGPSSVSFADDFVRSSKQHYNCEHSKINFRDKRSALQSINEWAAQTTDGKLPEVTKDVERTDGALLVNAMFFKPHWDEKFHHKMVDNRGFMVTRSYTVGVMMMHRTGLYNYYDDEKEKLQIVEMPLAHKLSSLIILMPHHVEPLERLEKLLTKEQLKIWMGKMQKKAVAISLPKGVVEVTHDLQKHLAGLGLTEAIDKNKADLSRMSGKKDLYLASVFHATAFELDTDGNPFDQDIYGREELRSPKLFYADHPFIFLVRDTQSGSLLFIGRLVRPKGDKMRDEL
Kind of assay: Inhibition of HSP47 Function. On the procedure:
Fibrils were formed by adding 180 ul of phosphate-buffered saline (PBS, pH 7.4) solution to 20 ul of collagen dissolved in acidic solution (collagen solution, UK), which was measured at a wavelength of 340 nm. HSP47 (GenScript US) was added at a concentration of 9.45 μg/ml to assess HSP47 activity as the degree to which it inhibits fibril formation. Test compound was added with concentrations of 100 μM to 1 μM and the inhibitory activity of HSP47 was calculated as a percentage or EC50.

For the compound `CCc1oc2cc(Cl)ccc2c1C(=O)c1cc(Br)c(O)c(Br)c1` [US20250282741, Example 12], it took 73.1 µM to reach a half-maximal effect (EC50).

Compound `CCc1oc2c(Cl)cccc2c1C(=O)c1cc(I)c(O)c(I)c1` [US20250282741, Example 14] displayed a 50% effective concentration (EC50) of 15.9 µM. `CCc1oc2cc(C(F)(F)F)ccc2c1C(=O)c1cc(Br)c(O)c(Br)c1` [US20250282741, Example 22] came in with an EC50 of 32.1 µM.

A word on the EC50: it is the concentration giving half of the maximal effect. Read a high EC50 as a need for much substance.
